Source: PubChem BioAssay (NCI)
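Test compounds were applied to cells in 96-well plates for 48 hours at 5 doses. TGI denotes the concentration required for complete inhibition of growth.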

How the values were obtained:
Experiment in all cases: DTP human tumour cell line panel, 48 h
BT-549 breast = system: BT-549 breast
CAKI-1 renal = system: CAKI-1 renal
CCRF-CEM leukemia = system: CCRF-CEM leukemia
HCT-116 colon = system: HCT-116 colon
HOP-62 NSCLC = system: HOP-62 NSCLC
HT29 colon = system: HT29 colon
IGROV1 ovarian = system: IGROV1 ovarian
LOX IMVI melanoma = system: LOX IMVI melanoma
MCF7 breast = system: MCF7 breast
MDA-MB-435 = system: MDA-MB-435
NCI-H460 lung = system: NCI-H460 lung
NCI/ADR-RES ovarian = system: NCI/ADR-RES ovarian
OVCAR-3 ovarian = system: OVCAR-3 ovarian
PC-3 prostate = system: PC-3 prostate
SF-295 CNS = system: SF-295 CNS
SK-MEL-28 melanoma = system: SK-MEL-28 melanoma
SK-MEL-5 melanoma = system: SK-MEL-5 melanoma
SW-620 colon = system: SW-620 colon
TK-10 renal = system: TK-10 renal
UO-31 renal = system: UO-31 renal

Structure (SMILES): COc1cc(C=O)cc(C=Nc2ccc(S(N)(=O)=O)cc2)c1O
- TGI (BT-549 breast): > 100 µM
- TGI (CAKI-1 renal): 49.3 µM
- TGI (CCRF-CEM leukemia): 33.8 µM
- TGI (HCT-116 colon): 94.7 µM
- TGI (HOP-62 NSCLC): 48.5 µM
- TGI (HT29 colon): > 100 µM
- TGI (IGROV1 ovarian): > 100 µM
- TGI (LOX IMVI melanoma): 42.7 µM
- TGI (MCF7 breast): > 100 µM
- TGI (MDA-MB-435): 49 µM
- TGI (NCI-H460 lung): 74.6 µM
- TGI (NCI/ADR-RES ovarian): > 100 µM
- TGI (OVCAR-3 ovarian): > 100 µM
- TGI (PC-3 prostate): 21.3 µM
- TGI (SF-295 CNS): 23.2 µM
- TGI (SK-MEL-28 melanoma): 99 µM
- TGI (SK-MEL-5 melanoma): 23 µM
- TGI (SW-620 colon): > 100 µM
- TGI (TK-10 renal): > 100 µM
- TGI (UO-31 renal): > 100 µM

Structure (SMILES): O=C(NN=C1CCCCC1)NN=C1CCCCC1
- TGI (BT-549 breast): > 100 µM
- TGI (CAKI-1 renal): > 100 µM
- TGI (CCRF-CEM leukemia): > 100 µM
- TGI (HCT-116 colon): > 100 µM
- TGI (HOP-62 NSCLC): > 100 µM
- TGI (HT29 colon): > 100 µM
- TGI (IGROV1 ovarian): > 100 µM
- TGI (LOX IMVI melanoma): > 100 µM
- TGI (MCF7 breast): > 100 µM
- TGI (MDA-MB-435): > 100 µM
- TGI (NCI-H460 lung): > 100 µM
- TGI (NCI/ADR-RES ovarian): > 100 µM
- TGI (OVCAR-3 ovarian): > 100 µM
- TGI (PC-3 prostate): > 100 µM
- TGI (SF-295 CNS): > 100 µM
- TGI (SK-MEL-28 melanoma): > 100 µM
- TGI (SK-MEL-5 melanoma): > 100 µM
- TGI (SW-620 colon): > 100 µM
- TGI (TK-10 renal): > 100 µM
- TGI (UO-31 renal): > 100 µM
